Assays:
[1] = biological target: T1, human TRPV1 receptor (hTRPV1) (Homo sapiens (Human), UniProt Q8NER1); assay: Acid activation assay (pH 5.0, FLIPR intracellular Ca2+); type: cell-based; details: Table 1, 37.5 μM antagonist, percentage of the maximal pH 5.0-induced response remaining; for remaining activity at 37.5 µM: read-out: hTRPV1 H+ (max % remain)
Description: Dulbecco's modified Eagle's medium (DMEM) with 4.5 mg/mL D-glucose, fetal bovine serum, L-glutamine, and 2-morpholinoethanesulfonic acid (MES) were purchased from Sigma-Aldrich Co. (St. Louis, Mo.). Dulbecco's phosphate-buffered saline (DPBS) with Ca^2+, Mg^2+, and 1 mg/mL D-glucose (pH 7.4), Geneticin®, 0.25% trypsin-1 mM EDTA, and penicillin-streptomycin were purchased from Invitrogen Corp. (Carlsbad, Calif.). The FLIPR® Calcium 4 assay kit was purchased from Molecular Devices (Sunnyvale, Calif.).
The cDNAs for the human TRPV1 receptor (hTRPV1) were isolated by reverse transcriptase-polymerase chain reaction (RT-PCR) from human small intestine poly A+RNA supplied by Clontech (Palo Alto, Calif.) using primers designed surrounding the initiation and termination codons identical to the published sequences (Hayes et al. Pain 2000, 88, 205-215). The resulting cDNA PCR products were subcloned into pCIneo mammalian expression vector (Promega) and fully sequenced using fluorescent dye-terminator reagents (Prism, Perkin-Elmer Applied Biosystems Division) and a Perkin-Elmer Applied Biosystems Model 373 DNA sequencer or Model 310 genetic analyzer. Expression plasmids encoding the hTRPV1 cDNA were transfected individually into 1321N1 human astrocytoma cells using Lipofectamine. Forty-eight hours after transfection, the neomycin-resistant cells were selected with growth medium containing 800 μg/mL Geneticin (Gibco BRL). Surviving individual colonies were isolated and screened for TRPV1 receptor activity. Cells expressing recombinant homomeric TRPV1 receptors were maintained at 37° C. in DMEM containing 4 mM L-glutamine, 300 μg/mL G418 (Cal-biochem) and 10% fetal bovine serum under a humidified 5% CO2 atmosphere.
The functional activity of compounds at the TRPV1 receptor was determined by measurement of intracellular Ca^2+ levels ([Ca^2+]i) using the Fluorescence Imaging Plate Reader (FLIPR)^TETRA®. All compounds were tested over a 12-point one-half-log concentration range. Compound stocks, 10 mM, were prepared in DMSO, and diluted serially across a 384-well plate using a Bravo BenchCel workstation (Agilent Technologies, Santa Clara, Calif.).
On the day of the experiment growth medium was removed, and the no-wash FLIPR® Calcium-4 dye (λEX=470-495 nm, λEM=515-575 nm) was added to each well using the Multidrop® dispenser. Cells were incubated for 90-120 minutes in the dark at 25° C. Test compounds were dissolved in DMSO, and plates were prepared using an Agilent Bravo workstation (Agilent Technologies Inc., Santa Clara, Calif.). Compounds were added to the cells 3 minutes prior to the addition of a pH 5.0 solution. Reagents were delivered at a rate of 40 μL/sec, and the final assay volume was 80 μL. Acidic pH solutions were prepared by titration of DPBS/MES with 1 N HCl. The intensity of the fluorescence was captured and digitally transferred to an interfaced PC.

[2] = biological target: T1, human TRPV1 receptor (hTRPV1); assay: Capsaicin activation assay (FLIPR intracellular Ca2+); type: cell-based; details: Table 1; inhibition of capsaicin-induced intracellular Ca2+ increase, HEK293 cells expressing human TRPV1; read-out: hTRPV1 cap IC50
Description: Dulbecco's modified Eagle medium (D-MEM) (with 4.5 mg/mL glucose) and fetal bovine serum were obtained from Hyclone Laboratories, Inc. (Logan, Utah). Dulbecco's phosphate-buffered saline (D-PBS) (with 1 mg/mL glucose and 3.6 mg/l Na pyruvate, without phenol red), L-glutamine, hygromycin B, and Lipofectamine® were obtained from Life Technologies (Grand Island, N.Y.). G418 sulfate was obtained from Calbiochem-Novabiochem Corp. (San Diego, Calif.). Capsaicin (8-methyl-N-vanillyl-6-nonenamide) was obtained from Sigma-Aldrich, Co. (St. Louis, Mo.). Fluo-4 AM (N-[4-[6-[(acetyloxy)methoxy]-2,7-difluoro-3-oxo-3H-xanthen-9-yl]-2-[2-[2-[bis[2-[(acetyloxy)methoxy]-2-oxyethyl]amino]-5-methyl phenoxy]ethoxy]phenyl]-N-[2-[(acetyloxy)methoxy]-2-oxyethyl]-glycine, (acetyloxy)methyl ester) was purchased from Molecular Probes (Eugene, Oreg.). […]
The functional activity of compounds at the TRPV1 receptor was determined by measurement of intracellular Ca^2+ levels ([Ca^2+]i) using the Fluorescence Imaging Plate Reader (FLIPR)^TETRA®. All compounds were tested over a 12-point one-third-log concentration range. Compound stocks, 10 mM, were prepared in DMSO, and diluted serially across a 384-well plate using a Bravo BenchCel workstation (Agilent Technologies, Santa Clara, Calif.). A stock concentration of capsaicin (10 mM) was made in DMSO, and diluted in D-PBS to a final concentration of 200 nM (4×). On the day prior to the experiment, recombinant HEK293 cells that stably express human TRPV1 were removed from tissue culture flasks and plated in growth medium into black-walled clear-bottom 384-well Biocoat™ poly-D-lysine assay plates (BD Biosciences, Bedford, Mass.) using a Multidrop® dispenser (ThermoScientific, Waltham, Mass.). On the day of the experiment, growth medium was removed, and the no-wash FLIPR® Calcium-4 dye (λEX=470-495 nm, λEM=515-575 nm; Molecular Devices, Sunnyvale, Calif.) was added to each well using the Multidrop® dispenser. Cells were incubated for 90-120 minutes in the dark at room temperature. Test compounds were added to the cells 3 minutes prior to the addition of 200 nM capsaicin (4×), and the final assay volume was 80 μL. Fluorescence readings were made at 1 to 5 second intervals over the course of the experimental run. The peak increase in relative fluorescence units (minus baseline) was calculated, and expressed as a percentage of the 50 nM capsaicin (control) response.

T1 sequence (Q8NER1 whole entry): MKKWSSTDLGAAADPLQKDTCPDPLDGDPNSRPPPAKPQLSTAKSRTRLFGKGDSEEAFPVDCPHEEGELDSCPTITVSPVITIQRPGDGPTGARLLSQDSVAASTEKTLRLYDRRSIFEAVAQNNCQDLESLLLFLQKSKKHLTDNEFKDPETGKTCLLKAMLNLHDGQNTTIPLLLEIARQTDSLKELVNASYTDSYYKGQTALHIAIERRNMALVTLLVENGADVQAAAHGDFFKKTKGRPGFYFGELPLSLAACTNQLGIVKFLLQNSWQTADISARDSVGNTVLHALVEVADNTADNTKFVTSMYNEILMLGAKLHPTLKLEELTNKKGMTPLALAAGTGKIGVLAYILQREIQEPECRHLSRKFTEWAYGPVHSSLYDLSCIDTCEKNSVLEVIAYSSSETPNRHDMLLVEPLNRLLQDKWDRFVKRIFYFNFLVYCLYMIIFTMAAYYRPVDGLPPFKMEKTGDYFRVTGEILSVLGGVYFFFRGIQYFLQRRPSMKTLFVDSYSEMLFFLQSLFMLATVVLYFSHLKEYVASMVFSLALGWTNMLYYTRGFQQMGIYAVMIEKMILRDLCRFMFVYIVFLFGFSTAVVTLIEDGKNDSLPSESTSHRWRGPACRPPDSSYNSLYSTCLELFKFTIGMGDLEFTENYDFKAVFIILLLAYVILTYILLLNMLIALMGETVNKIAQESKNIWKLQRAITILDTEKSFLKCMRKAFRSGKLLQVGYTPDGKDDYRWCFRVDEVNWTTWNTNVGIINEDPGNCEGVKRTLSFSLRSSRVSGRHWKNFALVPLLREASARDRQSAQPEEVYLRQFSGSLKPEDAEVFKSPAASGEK

remaining activity at 37.5 µM [1] [%] | IC50 [2] [nM] | hTRPV1 H+ (max % remain) [1] [%] | Compound
53 | – | – | O=C(Nc1cccc2[nH]ncc12)N[C@H]1CC[C@@H](c2ccccn2)C1 (relative stereo) [Example 38, 1-(1H-indazol-4-yl)-3-[cis-3-(pyridin-2-yl)cyclopentyl]urea]
33 | – | – | O=C(Nc1cccc2[nH]ncc12)N[C@H]1CC[C@H](c2ccccn2)C1 (relative stereo) [Example 39, 1-(1H-indazol-4-yl)-3-[trans-3-(pyridin-2-yl)cyclopentyl]urea]
18 | – | – | Cc1csc([C@H]2CC[C@H](NC(=O)Nc3cccc4[nH]ncc34)C2)n1 (relative stereo) [Example 119, 1-(1H-indazol-4-yl)-3-[(trans)-3-(4-methyl-1,3-thiazol-2-yl)cyclopentyl]urea]
5 | – | – | O=C(Nc1cccc2[nH]ncc12)N[C@@H]1CC[C@H](c2nc(C(F)(F)F)cs2)C1 (relative stereo) [Example 130, 1-(1H-indazol-4-yl)-3-{(1R*,3S*)-3-[4-(trifluoromethyl)-1,3-thiazol-2-yl]cyclopentyl}urea]
54 | – | – | Cc1csc([C@@H]2CC[C@H](NC(=O)Nc3cccc4[nH]ncc34)C2)n1 (single isomer, unassigned) [Example 120, 1-(1H-indazol-4-yl)-3-[(1S*,3R*)-3-(4-methyl-1,3-thiazol-2-yl)cyclopentyl]urea]
10 | – | – | Cc1csc([C@H]2CC[C@@H](NC(=O)Nc3cccc4[nH]ncc34)C2)n1 (single isomer, unassigned) [Example 121, 1-(1H-indazol-4-yl)-3-[(1R*,3S*)-3-(4-methyl-1,3-thiazol-2-yl)cyclopentyl]urea]
68 | 20500 | – | Cc1coc([C@@H]2CC[C@H](NC(=O)Nc3cccc4[nH]ncc34)C2)n1 (single isomer, unassigned) [Example 122, 1-(1H-indazol-4-yl)-3-[(1S*,3R*)-3-(4-methyl-1,3-oxazol-2-yl)cyclopentyl]urea]
29 | 1110 | – | Cc1coc([C@H]2CC[C@@H](NC(=O)Nc3cccc4[nH]ncc34)C2)n1 (single isomer, unassigned) [Example 123, 1-(1H-indazol-4-yl)-3-[(1R*,3S*)-3-(4-methyl-1,3-oxazol-2-yl)cyclopentyl]urea]
23 | – | – | Cc1cnc([C@@H]2CC[C@H](NC(=O)Nc3cccc4[nH]ncc34)C2)o1 (stereo in doubt) [Example 126, 1-(1H-indazol-4-yl)-3-[(1S*,3R*)-3-(5-methyl-1,3-oxazol-2-yl)cyclopentyl]urea]
54 | – | – | Cc1cnc([C@H]2CC[C@@H](NC(=O)Nc3cccc4[nH]ncc34)C2)o1 (stereo in doubt) [Example 128, 1-(1H-indazol-4-yl)-3-[(1R*,3S*)-3-(5-methyl-1,3-oxazol-2-yl)cyclopentyl]urea]
1 | – | – | O=C(Nc1cccc2[nH]ncc12)N[C@@H]1CCC(c2nc(C(F)(F)F)cs2)C1 (stereo partly drawn) [Example 131, 1-(1H-indazol-4-yl)-3-{(1R)-3-[4-(trifluoromethyl)-1,3-thiazol-2-yl]cyclopentyl}urea]

Second part, the compound before the results:

Compound | remaining activity at 37.5 µM [1] [%] | IC50 [2] [nM] | hTRPV1 H+ (max % remain) [1] [%]
O=C(Nc1cccc2[nH]ncc12)N[C@H]1CC[C@@](O)(c2ccccc2)C1 (relative stereo) [Example 58, 1-[(trans)-3-hydroxy-3-phenylcyclopentyl]-3-(1H-indazol-4-yl)urea] | – | 8640 | 53
O=C(Nc1cccc2[nH]ncc12)N[C@@H]1CC[C@@H](c2nc(C(F)(F)F)cs2)C1 (relative stereo) [Example 129, 1-(1H-indazol-4-yl)-3-{(1R*,3R*)-3-[4-(trifluoromethyl)-1,3-thiazol-2-yl]cyclopentyl}urea] | 6 | – | –
Cc1cc2c(NC(=O)N[C@H]3CC[C@@H](c4ncc(C)o4)C3)c(F)ccc2cn1 (stereo in doubt) [Example 125, 1-(6-fluoro-3-methylisoquinolin-5-yl)-3-[(1S*,3R*)-3-(5-methyl-1,3-oxazol-2-yl)cyclopentyl]urea] | 41 | – | –
Cc1cc2c(NC(=O)N[C@@H]3CC[C@H](c4ncc(C)o4)C3)c(F)ccc2cn1 (stereo in doubt) [Example 127, 1-(6-fluoro-3-methylisoquinolin-5-yl)-3-[(1R*,3S*)-3-(5-methyl-1,3-oxazol-2-yl)cyclopentyl]urea] | 54 | – | –
O=C(Nc1cccc2c1C[C@H](O)CC2)N[C@H]1CC[C@H](c2ccccc2)C1 [Compound A, 1-[(7R)-7-hydroxy-5,6,7,8-tetrahydronaphthalen-1-yl]-3-[(1S,3S)-3-phenylcyclopentyl]urea, reference compound] | 2 | 4 | –
O=C(Nc1cccc2c1C[C@@H](O)CC2)N[C@H]1CC[C@@H](c2ccccc2)C1 [Compound B, 1-[(7S)-7-hydroxy-5,6,7,8-tetrahydronaphthalen-1-yl]-3-[(1S,3R)-3-phenylcyclopentyl]urea, reference compound] | 1 | 6 | –
O=C(Nc1cccc2c1C[C@@H](O)CC2)N[C@@H]1CC[C@H](c2ccccc2)C1 [Compound C, 1-[(7S)-7-hydroxy-5,6,7,8-tetrahydronaphthalen-1-yl]-3-[(1R,3S)-3-phenylcyclopentyl]urea, reference compound] | 2 | 5 | –
O=C(Nc1cccc2c1C[C@@H](O)CC2)N[C@H]1CC[C@H](c2ccccc2)C1 [Compound D, 1-[(7S)-7-hydroxy-5,6,7,8-tetrahydronaphthalen-1-yl]-3-[(1S,3S)-3-phenylcyclopentyl]urea, reference compound] | 2 | 13 | –
O=C(Nc1cccc2c1C[C@H](O)CC2)N[C@@H]1CC[C@@H](c2ccccc2)C1 [Compound E, 1-[(7R)-7-hydroxy-5,6,7,8-tetrahydronaphthalen-1-yl]-3-[(1R,3R)-3-phenylcyclopentyl]urea, reference compound] | 1 | 5 | –
O=C(Nc1cccc2c1C[C@@H](O)CC2)N[C@@H]1CC[C@@H](c2ccccc2)C1 [Compound F, 1-[(7S)-7-hydroxy-5,6,7,8-tetrahydronaphthalen-1-yl]-3-[(1R,3R)-3-phenylcyclopentyl]urea, reference compound] | 6 | 5 | –
